Results published in paper PMC10404663 (The Journal of Biological Chemistry, 2023).

Tests used:
[1] = biological target: truncated RocR (RocR^trunc, central domain) (Bacillus subtilis, UniProt P38022); conditions: 15 mM ATP, 15 mM MgCl2, pH 7.5, room temperature, no effector
[2] = biological target: T1, RocB (Bacillus subtilis, UniProt P39635); test: coupled RocB-RocD assay, P5C-o-aminobenzaldehyde complex at […] nm; assay type: biochemical; conditions: 2 mM MnCl2, PBS, 25 °C, 1 µM RocD, 10 mM 2-oxoglutarate, 80 µM PLP
T1 sequence (P39635 1-566): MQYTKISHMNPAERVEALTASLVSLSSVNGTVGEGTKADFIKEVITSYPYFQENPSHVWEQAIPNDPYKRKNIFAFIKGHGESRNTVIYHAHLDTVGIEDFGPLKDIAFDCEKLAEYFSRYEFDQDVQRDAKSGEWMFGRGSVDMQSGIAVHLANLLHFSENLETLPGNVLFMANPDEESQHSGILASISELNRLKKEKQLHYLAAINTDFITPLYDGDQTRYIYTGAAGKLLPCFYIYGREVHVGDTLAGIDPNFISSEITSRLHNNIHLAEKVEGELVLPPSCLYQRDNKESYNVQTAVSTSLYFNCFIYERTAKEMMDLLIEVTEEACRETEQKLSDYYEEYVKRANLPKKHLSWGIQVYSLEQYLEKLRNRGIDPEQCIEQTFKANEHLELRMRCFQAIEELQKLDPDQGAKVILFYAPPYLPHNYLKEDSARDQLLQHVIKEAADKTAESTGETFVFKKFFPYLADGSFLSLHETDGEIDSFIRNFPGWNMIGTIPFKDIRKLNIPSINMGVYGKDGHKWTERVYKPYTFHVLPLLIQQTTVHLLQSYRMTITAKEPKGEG

[3] = biological target: the molecule itself; test: dynamic light scattering

For `Nc1ncnc2c1ncn2[C@@H]1O[C@H](COP(=O)(O)OP(=O)(O)OP(=O)(O)O)[C@@H](O)[C@H]1O` [ATP], the kobs [1] was “the truncated protein was active irrespective of the presence of potential effector molecules”.

`NC(=O)NCCC[C@H](N)C(=O)O` [citrulline] showed a KM [2] of 7.355 mM l^-1.

B1: RocR, transcription activator of the roc genes (6xHis-RocR) (natural protein, Bacillus subtilis, UniProt P38022 1-461, looked up)
chain: MVKDSEFLTLVFQSILDEIDVGLHVVDEHGNTIVYNNKMMQIEDMEKHDVLNKNLMDVFMFSKQQDSTLVQALQEGKTIKNVKQSYFNNKGQEITTINHTYPIVQDGKIRGAVEIAKDVTKLERLIRENMNKKGSTTYTFDSILGTSPAIQDVIENAKRATRTSSSVLLAGETGTGKELFAQSIHNGSDRSGGPFISQNCAALPDSLVESILFGTKKGAFTGAVDQPGLFEQAHGGTLLLDEINSLNLSLQAKLLRALQERKIRRIGSTKDTPIDVRIIATMNEDPIDAIAGERMRKDLYYRLSVVTLIIPPLRERKEDILLLASEFIQKNNHLFQMNVEHISDDVKQFFLSYDWPGNIRELEHMIEGAMNFMTDEQTITASHLPYQYRMKIKPADIPEPETPRHQPAADLKEKMESFEKYVIENVLRKHGHNISKAAQELGISRQSLQYRLKKFSHSSNE
With B1 the “stoichiometry N” value [3] was roughly 2.
